Results as given in patent US9801901B2, “Alginate oligomers for use in overcoming multidrug resistance in bacteria” (priority 2009, dated 2017).
Converted amounts (≈) assume the structure as drawn. Read-outs that look alike come from different tables or passages of the source. Marks after values point to notes of the source that are not given here.

How the values were obtained:
[1] = test system: Acinetobacter lwoffii (6056, V22); assay: MIC-assay, Mueller-Hinton broth with G-block alginate, 384-well, OD600
[2] = test system: Pseudomonas aeruginosa ATCC 39324, mucoid type strain (R79); assay: MIC assay, CAMHB with alginate oligomer, no visible growth; type: cell-based; conditions: R79
[3] = test system: Pseudomonas aeruginosa (MDR 301, PSA, V2); assay: MIC-assay, Mueller-Hinton broth with G-block alginate, 384-well, OD600; conditions: Pseudomonas aeruginosa, Table 8, V2
[4] = test system: Pseudomonas aeruginosa MDR R22 from China (V1); assay: MIC assay, CAMHB with alginate oligomer, no visible growth; type: cell-based; conditions: V1 MDR R22 PA
Source text: The study described in Example 1 was repeated with the following strains of bacteria and antibiotics as detailed in Tables 4, 5 and 6.

[5] = test system: MDR Providencia stuartii; assay: MIC-assay, Mueller-Hinton broth with G-block alginate, 384-well, OD600 (Table 11); type: cell-based; conditions: Providencia stuartii (IR57 India, V7) MDR
Source text: (§1) Minimum inhibitory concentration (MICs) of different antibiotics for strains of E. coli and Providencia stuartii displaying MDR phenotypes in the presence of varying concentrations of OligoCF-5/20 (0-10%). (MIC values are expressed in μg ml^−1).

[6] = test system: strains of E. coli displaying MDR phenotypes; assay: as above; type: cell-based; conditions: Escherichia coli, Escherichia coli (5702, Wales, V11) MDR, read-out: MIC
Source text: as §1

[7] = test system: Burkholderia cepacia (LMG18941, ATCC-BAA-246); assay: MIC-assay, Mueller-Hinton broth with G-block alginate, 384-well, OD600
[8] = test system: Pseudomonas aeruginosa MDR 301 from Poland (V2); assay: MIC assay, CAMHB with alginate oligomer, no visible growth; type: cell-based; conditions: V2 MDR 301 PA
[9] = test system: Pseudomonas aeruginosa CFA 24-1, clinical mucoid strain (R80); assay: as above; type: cell-based; conditions: R80
[10] = test system: Pseudomonas aeruginosa (R22, PSA, V1); assay: MIC-assay, Mueller-Hinton broth with G-block alginate, 384-well, OD600
[11] = test system: V12 5725 (Wales) Klebsiella pneumoniae; assay: MIC assay, CAMHB with alginate oligomer, no visible growth; type: cell-based; conditions: Table 5, V12 MDR Kleb pneu
[12] = test system: Acinetobacter baumannii (MDR ACB, Libya, V4); assay: MIC-assay, Mueller-Hinton broth with G-block alginate, 384-well, OD600
[13] = test system: V9 (Egypt) Acinetobacter baumannii; assay: MIC assay, CAMHB with alginate oligomer, no visible growth; type: cell-based; conditions: Table 5, V9 MDR Acin. baum
[14] = test system: Acinetobacter lwoffii (Egypt, V10); assay: MIC-assay, Mueller-Hinton broth with G-block alginate, 384-well, OD600
[15] = test system: PA01 Pseudomonas aeruginosa ATCC 15692; assay: MIC assay, two-fold antibiotic dilutions in CAMHB with alginate oligomer, no visible growth; type: cell-based; conditions: PA01
[16] = test system: Staphylococcus aureus (MRSA) U50; assay: MIC-assay, Mueller-Hinton broth with G-block alginate, 384-well, OD600 (Table 12); type: cell-based; conditions: MRSA 1040s, U50 MDR
Source text: Minimum inhibitory concentration (MICs) of different antibiotics for strains of Streptococcus oralis and Staphylococcus aureus (MRSA) displaying MDR phenotypes in the presence of varying concentrations of OligoCF-5/20 (0-10%). (MIC values are expressed in μg ml^−1).

[17] = Table 9, G-block (OligoCF-5/20) 0%
[18] = Table 9, G-block (OligoCF-5/20) 2%
[19] = Table 9, G-block (OligoCF-5/20) 6%
[20] = Table 9, G-block (OligoCF-5/20) 10%
[21] = Pseudomonas aeruginosa, Table 1, OligoCF-5/20 0G, read-out: MIC
[22] = Pseudomonas aeruginosa, Table 1, OligoCF-5/20 +2% G, read-out: MIC
[23] = Pseudomonas aeruginosa, Table 1, OligoCF-5/20 +6% G, read-out: MIC
[24] = Pseudomonas aeruginosa, Table 1, OligoCF-5/20 +10% G, read-out: MIC

## CC[C@H]1OC(=O)[C@H](C)[C@@H](O[C@H]2C[C@@](C)(OC)[C@@H](O)[C@H](C)O2)[C@H](C)[C@@H](O[C@@H]2O[C@H](C)C[C@H](N(C)C)[C@H]2O)[C@](C)(O)C[C@@H](C)CN(C)[C@H](C)[C@@H](O)[C@]1(C)O [Azithromycin]
[1]; [17]
  MIC: < 2 µg/mL
[1]; [18]
  MIC: < 2 µg/mL
[1]; [19]
  MIC: < 2 µg/mL
[1]; [20]
  MIC: < 2 µg/mL
[2]; Pseudomonas aeruginosa, ATCC39324, Table 1, OligoCF-5/20 0G, read-out: MIC
  MIC: 128 µg/mL (≈ 171 µM)
[2]; Pseudomonas aeruginosa, ATCC39324, Table 1, OligoCF-5/20 +2% G, read-out: MIC
  MIC: 64 µg/mL (≈ 85.4 µM)
[2]; Pseudomonas aeruginosa, ATCC39324, Table 1, OligoCF-5/20 +6% G, read-out: MIC
  MIC: 16 µg/mL (≈ 21.4 µM)
[2]; Pseudomonas aeruginosa, ATCC39324, Table 1, OligoCF-5/20 +10% G, read-out: MIC
  MIC: 4 µg/mL (≈ 5.34 µM)
[2]; Table 2, OligoCF-5/20 0G
  MIC: 128^†
[2]; Table 2, OligoCF-5/20 +2% G
  MIC: 64^†
[2]; Table 2, OligoCF-5/20 +6% G
  MIC: 16^†
[2]; Table 2, OligoCF-5/20 +10% G
  MIC: 4^†
[3]; G-block (OligoCF-5/20) 2%
  MIC: 64 µg/mL (≈ 85.4 µM)
[3]; G-block (OligoCF-5/20) 6%
  MIC: 64 µg/mL (≈ 85.4 µM)
[3]; G-block (OligoCF-5/20) 10%
  MIC: 32 µg/mL (≈ 42.7 µM)
[4]; [21]
  MIC: 64 µg/mL (≈ 85.4 µM)
[4]; [22]
  MIC: 64 µg/mL (≈ 85.4 µM)
[4]; [23]
  MIC: 64 µg/mL (≈ 85.4 µM)
[4]; [24]
  MIC: 32 µg/mL (≈ 42.7 µM)
[4]; Table 2, OligoCF-5/20 0G
  MIC: 64^†
[4]; Table 2, OligoCF-5/20 +2% G
  MIC: 64 µg/mL (≈ 85.4 µM)
[4]; Table 2, OligoCF-5/20 +6% G
  MIC: 64 µg/mL (≈ 85.4 µM)
[4]; Table 2, OligoCF-5/20 +10% G
  MIC: 32^†
[5]; G-block (OligoCF-5/20) 0%
  MIC: < 2 µg/mL
[5]; G-block (OligoCF-5/20) 2%
  MIC: < 2 µg/mL
[5]; G-block (OligoCF-5/20) 6%
  MIC: < 2 µg/mL
[5]; G-block (OligoCF-5/20) 10%
  MIC: < 2 µg/mL
[6]; G-block (OligoCF-5/20) 0%
  MIC: 16 µg/mL (≈ 21.4 µM)
[6]; G-block (OligoCF-5/20) 2%
  MIC: 16 µg/mL (≈ 21.4 µM)
[6]; G-block (OligoCF-5/20) 6%
  MIC: 8 µg/mL (≈ 10.7 µM)
[6]; G-block (OligoCF-5/20) 10%
  MIC: 16 µg/mL (≈ 21.4 µM)
[7]; ATCCBAA246|LMG18941, Table 8, G-block (OligoCF-5/20) 0%
  MIC: 64 µg/mL (≈ 85.4 µM)
[7]; ATCCBAA246|LMG18941, Table 8, G-block (OligoCF-5/20) 2%
  MIC: 32 µg/mL (≈ 42.7 µM)
[7]; ATCCBAA246|LMG18941, Table 8, G-block (OligoCF-5/20) 6%
  MIC: 16 µg/mL (≈ 21.4 µM)
[7]; ATCCBAA246|LMG18941, Table 8, G-block (OligoCF-5/20) 10%
  MIC: 16 µg/mL (≈ 21.4 µM)
[8]; [21]
  MIC: 64 µg/mL (≈ 85.4 µM)
[8]; [22]
  MIC: 64 µg/mL (≈ 85.4 µM)
[8]; [23]
  MIC: 32 µg/mL (≈ 42.7 µM)
[8]; [24]
  MIC: 16 µg/mL (≈ 21.4 µM)
[8]; Table 2, OligoCF-5/20 0G
  MIC: 64^†
[8]; Table 2, OligoCF-5/20 +2% G
  MIC: 64 µg/mL (≈ 85.4 µM)
[8]; Table 2, OligoCF-5/20 +6% G
  MIC: 32^†
[8]; Table 2, OligoCF-5/20 +10% G
  MIC: 16^†
[9]; [21]
  MIC: 256 µg/mL (≈ 342 µM)
[9]; [22]
  MIC: 128 µg/mL (≈ 171 µM)
[9]; [23]
  MIC: 64 µg/mL (≈ 85.4 µM)
[9]; [24]
  MIC: 8 µg/mL (≈ 10.7 µM)
[9]; Table 2, OligoCF-5/20 0G
  MIC: 256^†
[9]; Table 2, OligoCF-5/20 +2% G
  MIC: 128^†
[9]; Table 2, OligoCF-5/20 +6% G
  MIC: 64^†
[9]; Table 2, OligoCF-5/20 +10% G
  MIC: 8^†
[10]; Table 8, G-block (OligoCF-5/20) 2%
  MIC: 32 µg/mL (≈ 42.7 µM)
[10]; Table 8, G-block (OligoCF-5/20) 6%
  MIC: 32 µg/mL (≈ 42.7 µM)
[10]; Table 8, G-block (OligoCF-5/20) 10%
  MIC: 8 µg/mL (≈ 10.7 µM)
[11]; Klebsiella pneumoniae, OligoCF-5/20 0G, read-out: MIC
  MIC: 32 µg/mL (≈ 42.7 µM)
[11]; OligoCF-5/20 +2% G
  MIC: 8 µg/mL (≈ 10.7 µM)
[11]; OligoCF-5/20 +6% G
  MIC: 32 µg/mL (≈ 42.7 µM)
[11]; OligoCF-5/20 +10% G
  MIC: 32 µg/mL (≈ 42.7 µM)
[12]; [17]
  MIC: 16 µg/mL (≈ 21.4 µM)
[12]; [18]
  MIC: 2 µg/mL (≈ 2.67 µM)
[12]; [19]
  MIC: < 1 µg/mL
[12]; [20]
  MIC: < 1 µg/mL
[13]; Acinetobacter baumannii, OligoCF-5/20 0G, read-out: MIC
  MIC: 16 µg/mL (≈ 21.4 µM)
[13]; OligoCF-5/20 +2% G
  MIC: 4^† μg/ml
[13]; OligoCF-5/20 +6% G
  MIC: 0.5^† μg/ml
[13]; OligoCF-5/20 +10% G
  MIC: <0.25 µg/mL
[14]; [17]
  MIC: < 1 µg/mL
[14]; [18]
  MIC: < 1 µg/mL
[14]; [19]
  MIC: < 1 µg/mL
[14]; [20]
  MIC: < 1 µg/mL
[15]; Pseudomonas aeruginosa, ATCC15692, Table 1, OligoCF-5/20 0G, read-out: MIC
  MIC: 128 µg/mL (≈ 171 µM)
[15]; Pseudomonas aeruginosa, ATCC15692, Table 1, OligoCF-5/20 +2% G, read-out: MIC
  MIC: 64 µg/mL (≈ 85.4 µM)
[15]; Pseudomonas aeruginosa, ATCC15692, Table 1, OligoCF-5/20 +6% G, read-out: MIC
  MIC: 16 µg/mL (≈ 21.4 µM)
[15]; Pseudomonas aeruginosa, ATCC15692, Table 1, OligoCF-5/20 +10% G, read-out: MIC
  MIC: 4 µg/mL (≈ 5.34 µM)
[15]; Table 2, OligoCF-5/20 0G
  MIC: 128^†
[15]; Table 2, OligoCF-5/20 +2% G
  MIC: 64^†
[15]; Table 2, OligoCF-5/20 +6% G
  MIC: 16^†
[15]; Table 2, OligoCF-5/20 +10% G
  MIC: 4^†
[16]; G-block (OligoCF-5/20) 0%
  MIC: 512 µg/mL (≈ 684 µM)
[16]; G-block (OligoCF-5/20) 2%
  MIC: 256 µg/mL (≈ 342 µM)
[16]; G-block (OligoCF-5/20) 6%
  MIC: 256 µg/mL (≈ 342 µM)
[16]; G-block (OligoCF-5/20) 10%
  MIC: 256 µg/mL (≈ 342 µM)
